In patent publication US20230382923A1, “FUSED TETRACYCLIC QUINAZOLINE DERIVATIVES AS INHIBITORS OF ERBB2” (EnLiven Therapeutics, Inc., priority 2021, published 2023) one finds IC50 data, which are given here for 13 compounds.

The target of assay [1] is phosphorylated EGFR (pEGFR) (Homo sapiens (Human), UniProt P00533). In words: Detection of phosphorylated EGFR (pEGFR) by AlphaLISA in A431 cells. It is filed as cell-based. As to conditions: A431 cells (10% FBS), 4 hours incubation, EGF 30 ng/mL for 10 minutes. The method in brief: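 A431 cells in 10% FBS exposed to compound for 4 h at 37 °C, then stimulated 10 min with 30 ng/mL EGF. Lysates assayed for phospho-EGFR by AlphaLISA. % inhibition relative to DMSO and staurosporine controls; IC50 from four-parameter curve fit.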
phosphorylated EGFR (pEGFR), sequence (P00533 25-1210): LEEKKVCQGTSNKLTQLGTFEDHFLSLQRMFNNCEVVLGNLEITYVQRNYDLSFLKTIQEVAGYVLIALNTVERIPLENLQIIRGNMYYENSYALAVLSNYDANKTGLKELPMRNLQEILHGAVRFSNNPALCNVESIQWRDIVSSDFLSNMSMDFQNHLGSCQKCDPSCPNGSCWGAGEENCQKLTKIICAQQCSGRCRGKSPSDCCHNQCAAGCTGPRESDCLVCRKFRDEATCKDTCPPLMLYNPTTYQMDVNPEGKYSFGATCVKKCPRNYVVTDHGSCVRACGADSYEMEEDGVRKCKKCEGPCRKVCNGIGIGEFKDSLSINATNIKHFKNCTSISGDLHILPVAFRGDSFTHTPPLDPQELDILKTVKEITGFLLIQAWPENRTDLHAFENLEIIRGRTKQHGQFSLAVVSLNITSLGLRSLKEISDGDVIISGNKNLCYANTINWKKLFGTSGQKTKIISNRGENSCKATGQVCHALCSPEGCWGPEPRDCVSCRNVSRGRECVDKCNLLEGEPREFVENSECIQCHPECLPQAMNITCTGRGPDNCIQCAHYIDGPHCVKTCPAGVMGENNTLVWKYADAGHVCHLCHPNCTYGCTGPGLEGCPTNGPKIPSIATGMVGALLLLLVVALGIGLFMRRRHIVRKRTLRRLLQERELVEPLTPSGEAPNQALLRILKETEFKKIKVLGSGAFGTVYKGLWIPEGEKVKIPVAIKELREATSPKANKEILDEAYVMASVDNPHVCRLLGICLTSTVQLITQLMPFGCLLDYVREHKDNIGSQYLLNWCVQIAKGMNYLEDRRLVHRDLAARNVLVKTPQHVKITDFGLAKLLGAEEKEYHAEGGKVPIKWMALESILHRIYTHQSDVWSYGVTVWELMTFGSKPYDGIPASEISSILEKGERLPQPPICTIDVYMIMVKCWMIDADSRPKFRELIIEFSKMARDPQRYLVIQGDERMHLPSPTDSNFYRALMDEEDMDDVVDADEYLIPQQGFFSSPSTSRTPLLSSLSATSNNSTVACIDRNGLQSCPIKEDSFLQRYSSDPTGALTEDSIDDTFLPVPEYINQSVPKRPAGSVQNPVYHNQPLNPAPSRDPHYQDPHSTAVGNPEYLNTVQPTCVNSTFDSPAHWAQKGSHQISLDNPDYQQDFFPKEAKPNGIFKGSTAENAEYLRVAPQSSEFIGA

For assay [2], the target named is phosphorylated ERBB2 (pERBB2) (Homo sapiens (Human), UniProt P04626). In words: Detection of phosphorylated ERBB2 (pERBB2) by ELISA in BT-474 cells. It is filed as cell-based. As to conditions: four hours incubation with compound. The gist of the method: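 BT-474 cells were exposed to serially diluted compounds for 4 h at 37 °C, then lysed. Phospho-ERBB2 in lysates was captured by ELISA and detected with an HRP anti-phosphotyrosine antibody and TMB.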
phosphorylated ERBB2 (pERBB2), sequence (P04626 23-1255): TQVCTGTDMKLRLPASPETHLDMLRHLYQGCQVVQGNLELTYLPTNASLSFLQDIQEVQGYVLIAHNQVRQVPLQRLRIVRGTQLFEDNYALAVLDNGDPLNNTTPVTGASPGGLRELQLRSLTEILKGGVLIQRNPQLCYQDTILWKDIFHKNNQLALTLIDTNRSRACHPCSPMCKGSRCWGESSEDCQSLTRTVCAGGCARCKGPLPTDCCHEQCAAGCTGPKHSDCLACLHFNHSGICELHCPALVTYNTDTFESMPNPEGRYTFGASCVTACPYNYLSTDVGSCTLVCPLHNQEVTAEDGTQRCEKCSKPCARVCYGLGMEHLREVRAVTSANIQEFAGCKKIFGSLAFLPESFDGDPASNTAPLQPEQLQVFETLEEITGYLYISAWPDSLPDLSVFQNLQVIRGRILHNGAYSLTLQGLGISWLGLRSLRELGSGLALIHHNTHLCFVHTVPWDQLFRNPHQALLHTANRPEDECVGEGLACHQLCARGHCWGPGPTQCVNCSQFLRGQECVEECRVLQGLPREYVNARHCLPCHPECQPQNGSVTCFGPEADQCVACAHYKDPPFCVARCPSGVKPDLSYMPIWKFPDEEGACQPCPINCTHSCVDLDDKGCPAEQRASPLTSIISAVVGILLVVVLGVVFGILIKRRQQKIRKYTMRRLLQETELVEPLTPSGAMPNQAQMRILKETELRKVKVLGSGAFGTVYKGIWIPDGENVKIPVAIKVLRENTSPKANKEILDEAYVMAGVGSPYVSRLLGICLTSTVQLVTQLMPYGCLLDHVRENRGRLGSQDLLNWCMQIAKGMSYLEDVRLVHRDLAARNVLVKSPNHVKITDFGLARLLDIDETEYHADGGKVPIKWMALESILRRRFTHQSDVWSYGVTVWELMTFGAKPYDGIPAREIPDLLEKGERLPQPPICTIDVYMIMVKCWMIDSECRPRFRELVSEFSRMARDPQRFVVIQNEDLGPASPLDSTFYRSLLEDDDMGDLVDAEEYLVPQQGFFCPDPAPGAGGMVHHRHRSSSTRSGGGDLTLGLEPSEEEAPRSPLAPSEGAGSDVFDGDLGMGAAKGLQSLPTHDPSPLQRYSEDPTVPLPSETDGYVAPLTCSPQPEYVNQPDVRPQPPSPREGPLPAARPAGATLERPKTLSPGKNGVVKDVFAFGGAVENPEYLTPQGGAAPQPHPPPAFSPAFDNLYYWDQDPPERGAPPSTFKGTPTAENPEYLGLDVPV
On the technique in general: ELISA stands for enzyme-linked immunosorbent assay.

For assay [3], the system named is Ba/F3 ERBB2 YVMA. The assay is described as follows: Cell viability assay (CellTiter Glo, 72 hours). In kind it is cell-based, mouse. Here is the method:
Cells were treated with compounds, and cell viability was measured as a metric of kinase inhibition.
BT-474, A431, MDA-MB-175VII, NCI-H1781, MCF7, and Ba/F3 cell lines were tested. The Ba/F3 cell line is IL-3-dependent mouse cell line derived from the C3H mouse strain. Ba/F3 cell lines were engineered to express human ERBB2 or EGFR kinases, rendering the cells IL-3 independent. The lines were generated via retroviral transduction utilizing a Moloney murine leukemia virus (MMLV) promoter, and constructs are stably integrated into the cell genome. The sequences of the ERBB2 and EGFR genes used were NCBI Reference Sequences NM_004448.3 and NM_005228.3, respectively.
BT-474, A431, MDA-MB-175VII, NCI-H1781 and MCF7 cells were grown in the appropriate growth medium as described in Table B2 below, and harvested at 50-80% confluence. BT-474, A431, MDA-MB-175VII, NCI-H1781 and MCF7 cells were counted and seeded at 2,000 or 1,500 cells per well in 384-well tissue culture plates (see Table B2). Similarly, Ba/F3 cell lines engineered to express EGFR, ERBB2, or ERBB2 mutants were grown, harvested, counted and seeded at 3000 cells per well in 96-well plates. A subset of wells contained media only (low control, “LC”).
Table B1 provides the growth media and number of cells seeded per well for the each cell line.
Compounds were dissolved in DMSO and serially diluted. Serially-diluted compound or a DMSO only control (high control, “HC”) was added to the plated cells in each well. Compounds were tested at concentrations of about 10 μM to 0.51 nM, using three-fold dilutions. The final proportion of DMSO never exceeded 0.1%.
Plates were placed in a 37° C., 5% CO2 incubator for 72 hours. Plates were then removed from the incubator and equilibrated for 15 minutes at room temperature. 40 μl of CellTiter Glo reagent (Promega) was added to measure the relative level of metabolically active cells by quantifying intracellular ATP concentrations. Plates were incubated for 30 minutes at room temperature, and luminescence was measured. Percent viability was normalized to a vehicle control only using the following formula: % viability=100×(LumSample−LumLC)/(LumHC−LumLC). Graphical curves were fitted using a nonlinear regression model with a sigmoidal dose response.
For orientation: ATP-based viability assays read luminescence as a measure of living cells.

Where [4] appears, read: Mus musculus, BaF3, 72 h, Ba/F3 cells engineered to express human ERBB2 YVMA mutant, 72 hours, CellTiter Glo viability, read-out: Ba/F3 ERBB2 YVMA, IC50.
Setting [5] is: Mus musculus, BaF3, 72 h, read-out: Ba/F3 ERBB2 YVMA, IC50, nM.
The mark [6] stands for this setting: Ba/F3 cells engineered to express human ERBB2 YVMA mutant, 72 hours, CellTiter Glo viability, read-out: Ba/F3 ERBB2 YVMA, IC50.

Counter-ions that a name gives are not always drawn. Like-named read-outs stand apart in the source and are kept apart here. Some results are limits rather than exact numbers.

For the compound `Cc1cc(Nc2ncnc3cc4c(cc23)N2CCN(C(=O)/C=C/CN(C)C)C(CO4)C2)ccc1Oc1ccn2ncnc2c1` (stereo in doubt) [Compound 8, (E)-1-((10R)-4-((4-([1,2,4]triazolo[1,5-a]pyridin-7-yloxy)-3-methylphenyl)amino)-7,8,10,11-tetrahydro-9H-6,10-methano[1,4,7]oxadiazonino[3,2-g]quinazolin-9-yl)-4-(dimethylamino)but-2-en-1-one], the IC50 is more than 10000 nM in assay [1], 547 nM in assay [2] and more than 500 nM in assay [3] (setting [4]).

As for `C=CC(=O)N1CCN2CC1COc1cc3ncnc(Nc4ccc(Oc5ccc(C)nc5)c(C)c4)c3nc12` (stereo in doubt) [Compound 20, 1-((10S)-4-((3-methyl-4-((6-methylpyridin-3-yl)oxy)phenyl)amino)-7,8,10,11-tetrahydro-9H-6,10-methanopyrimido[4′,5′:5,6]pyrido[3,2-b][1,4,7]oxadiazonin-9-yl)prop-2-en-1-one], the IC50 in assay [1] stood at 192 nM; in assay [2], 21.1 nM; in assay [3] (setting [5]), 5.28 nM.

For `C=CC(=O)N1CCN2CC1COc1cc3ncnc(Nc4ccc(Oc5ccn6ncnc6c5)c(C)c4)c3nc12` (stereo in doubt) [Compound 2, 1-((10R)-4-((4-([1,2,4]triazolo[1,5-a]pyridin-7-yloxy)-3-methylphenyl)amino)-7,8,10,11-tetrahydro-9H-6,10-methanopyrimido[4′,5′:5,6]pyrido[3,2-b][1,4,7]oxadiazonin-9-yl)prop-2-en-1-one], the IC50 was more than 10000 nM in assay [1], 422 nM in assay [2] and 116 nM in assay [3] (setting [5]).

In the case of `CCc1ccc(Oc2ccc(Nc3ncnc4cc5c(nc34)N3CCN(C(=O)/C=C/CN(C)C)C(CO5)C3)cc2C)cn1` (stereo in doubt) [Compound 38, (E)-4-(dimethylamino)-1-((10S)-4-((4-((6-ethylpyridin-3-yl)oxy)-3-methylphenyl)amino)-7,8,10,11-tetrahydro-9H-6,10-methanopyrimido[4′,5′:5,6]pyrido[3,2-b][1,4,7]oxadiazonin-9-yl)but-2-en-1-one formic acid], the IC50 in assay [1] is 3080 nM; in assay [2], 126 nM; in assay [3] (setting [5]), 11.8 nM.

On to `C=CC(=O)N1CCN2CC1COc1cc3ncnc(Nc4ccc(Oc5ccn6ncnc6c5)c(C)c4)c3cc12` (stereo in doubt) [Compound 4, 1-((10S)-4-((4-([1,2,4]triazolo[1,5-a]pyridin-7-yloxy)-3-methylphenyl)amino)-7,8,10,11-tetrahydro-9H-6,10-methano[1,4,7]oxadiazonino[3,2-g]quinazolin-9-yl)prop-2-en-1-one], for which the IC50 in assay [1] was determined as 1860 nM; in assay [2] it was 7.36 nM; in assay [3] (setting [5]), 8.63 nM.

Turning to `CNC/C=C/C(=O)N1CCN2CC1COc1cc3ncnc(Nc4ccc(Oc5ccn6ncnc6c5)c(C)c4)c3nc12` (stereo in doubt) [Compound 37, (E)-1-((10S)-4-((4-([1,2,4]triazolo[1,5-a]pyridin-7-yloxy)-3-methylphenyl)amino)-7,8,10,11-tetrahydro-9H-6,10-methanopyrimido[4′,5′:5,6]pyrido[3,2-b][1,4,7]oxadiazonin-9-yl)-4-(methylamino)but-2-en-1-one formate], the figures for the IC50 in assay [1], in assay [2] and in assay [3] (setting [5]) were 3620 nM, 28 nM and 52.3 nM, respectively.

For `[2H]C([2H])([2H])N(C/C=C/C(=O)N1CCN2CC1COc1cc3ncnc(Nc4ccc(Oc5ccn6ncnc6c5)c(C)c4)c3nc12)C([2H])([2H])[2H]` (stereo in doubt) [Compound 36, (E)-1-((10S)-4-((4-([1,2,4]triazolo[1,5-a]pyridin-7-yloxy)-3-methylphenyl)amino)-7,8,10,11-tetrahydro-9H-6,10-methanopyrimido[4′,5′:5,6]pyrido[3,2-b][1,4,7]oxadiazonin-9-yl)-4-(bis(methyl-d3)amino)but-2-en-1-one formic acid], the IC50 in assay [1] amounted to 1620 nM; in assay [2] it was 9.92 nM; in assay [3] (setting [5]), 6.19 nM.

With `[2H]C([2H])([2H])N(C/C=C/C(=O)N1CCN2CC1COc1cc3ncnc(Nc4cc(C)c(Oc5ccn6ncnc6c5)cc4F)c3nc12)C([2H])([2H])[2H]` (stereo in doubt) [Compound 46, (E)-1-((10S)-4-((4-([1,2,4]triazolo[1,5-a]pyridin-7-yloxy)-2-fluoro-5-methylphenyl)amino)-7,8,10,11-tetrahydro-9H-6,10-methanopyrimido[4′,5′:5,6]pyrido[3,2-b][1,4,7]oxadiazonin-9-yl)-4-(bis(methyl-d3)amino)but-2-en-1-one], the IC50 in assay [1] amounted to 2470 nM; in assay [2], 6.84 nM; in assay [3] (setting [5]), 7.04 nM.

Regarding `C=CC(=O)N1CCN2CC1COc1cc3ncnc(Nc4ccc(Oc5ccc(CC)nc5)c(C)c4)c3nc12` (stereo in doubt) [Compound 22, 1-((10S)-4-((4-((6-ethylpyridin-3-yl)oxy)-3-methylphenyl)amino)-7,8,10,11-tetrahydro-9H-6,10-methanopyrimido[4′,5′:5,6]pyrido[3,2-b][1,4,7]oxadiazonin-9-yl)prop-2-en-1-one], the IC50 was 684 nM in assay [1], 70 nM in assay [2] and 56.1 nM in assay [3] (setting [5]).

For the compound `Cc1cc(Nc2ncnc3cc4c(nc23)N2CCN(C(=O)/C=C/[C@H](C)N(C)C)C(CO4)C2)ccc1Oc1ccn2ncnc2c1` (stereo in doubt) [Compound 30, (4S,E)-1-((10S)-4-((4-([1,2,4]triazolo[1,5-a]pyridin-7-yloxy)-3-methylphenyl)amino)-7,8,10,11-tetrahydro-9H-6,10-methanopyrimido[4′,5′:5,6]pyrido[3,2-b][1,4,7]oxadiazonin-9-yl)-4-(dimethylamino)pent-2-en-1-one], the figures for the IC50 in assay [1], in assay [2] and in assay [3] (setting [4]) were more than 10000 nM, 10.6 nM and 10.5 nM, respectively.

For the compound `C=CC(=O)N1CCN2CC1COc1cc3ncnc(Nc4ccc(Oc5ccn6ncnc6c5)c(C)c4)c3nc12` (stereo in doubt) [Compound 1, 1-((10S)-4-((4-([1,2,4]triazolo[1,5-a]pyridin-7-yloxy)-3-methylphenyl)amino)-7,8,10,11-tetrahydro-9H-6,10-methanopyrimido[4′,5′:5,6]pyrido[3,2-b][1,4,7]oxadiazonin-9-yl)prop-2-en-1-one], the IC50 worked out at 450 nM in assay [1], 9.77 nM in assay [2] and 7.77 nM in assay [3] (setting [5]).

`Cc1cc(Nc2ncnc3cc4c(nc23)N2CCCN(C(=O)/C=C/CN(C)C)C(CO4)C2)ccc1Oc1ccn2ncnc2c1` (single isomer, unassigned) [Example S55, Enantiomer 2, (E)-1-(4-((4-([1,2,4]triazolo[1,5-a]pyridin-7-yloxy)-3-methylphenyl)amino)-8,9,11,12-tetrahydro-6,11-methanopyrimido[4′,5′:5,6]pyrido[3,2-b][1,4,8]oxadiazecin-10 (7H)-yl)-4-(dimethylamino)but-2-en-1-one Enantiomer 2]: the IC50 in assay [1] was more than 10000 nM; in assay [3] (setting [6]) it was more than 500 nM.

Consider `Cc1cc(Nc2ncnc3cc4c(nc23)N2CCCN(C(=O)/C=C/CN(C)C)C(CO4)C2)ccc1Oc1ccn2ncnc2c1` (single isomer, unassigned) [Example S55, Enantiomer 1, (E)-1-(4-((4-([1,2,4]triazolo[1,5-a]pyridin-7-yloxy)-3-methylphenyl)amino)-8,9,11,12-tetrahydro-6,11-methanopyrimido[4′,5′:5,6]pyrido[3,2-b][1,4,8]oxadiazecin-10 (7H)-yl)-4-(dimethylamino)but-2-en-1-one Enantiomer 1], for which the IC50 in assay [1] is more than 10000 nM; in assay [3] (setting [6]), 5.88 nM.
